Reference: ChEMBL document CHEMBL5729410, “Urea-substituted aromatic ring-linked dioxinoquinoline compounds, preparation method and uses thereof” (2022)

Assays:
[1] = target: Vascular endothelial growth factor receptor 2 (Homo sapiens, UniProt P35968); assay: Assay of Small Molecular Compounds for Inhibiting the Activity of VEGFR-2 Kinase: The assay is based on the LANCE TR-FRET technology of Perkin Elmer Inc., and the assay method is as follows:1.
[2] = target: Proto-oncogene tyrosine-protein kinase receptor Ret (Homo sapiens, UniProt P07949); assay: Assay of Small Molecular Compounds for Inhibiting the Activity of RET Kinase: The assay is based on the LANCE TR-FRET technology of Perkin Elmer Inc., and the assay method is as follows:1.
Sequence of Proto-oncogene tyrosine-protein kinase receptor Ret (P07949 whole entry): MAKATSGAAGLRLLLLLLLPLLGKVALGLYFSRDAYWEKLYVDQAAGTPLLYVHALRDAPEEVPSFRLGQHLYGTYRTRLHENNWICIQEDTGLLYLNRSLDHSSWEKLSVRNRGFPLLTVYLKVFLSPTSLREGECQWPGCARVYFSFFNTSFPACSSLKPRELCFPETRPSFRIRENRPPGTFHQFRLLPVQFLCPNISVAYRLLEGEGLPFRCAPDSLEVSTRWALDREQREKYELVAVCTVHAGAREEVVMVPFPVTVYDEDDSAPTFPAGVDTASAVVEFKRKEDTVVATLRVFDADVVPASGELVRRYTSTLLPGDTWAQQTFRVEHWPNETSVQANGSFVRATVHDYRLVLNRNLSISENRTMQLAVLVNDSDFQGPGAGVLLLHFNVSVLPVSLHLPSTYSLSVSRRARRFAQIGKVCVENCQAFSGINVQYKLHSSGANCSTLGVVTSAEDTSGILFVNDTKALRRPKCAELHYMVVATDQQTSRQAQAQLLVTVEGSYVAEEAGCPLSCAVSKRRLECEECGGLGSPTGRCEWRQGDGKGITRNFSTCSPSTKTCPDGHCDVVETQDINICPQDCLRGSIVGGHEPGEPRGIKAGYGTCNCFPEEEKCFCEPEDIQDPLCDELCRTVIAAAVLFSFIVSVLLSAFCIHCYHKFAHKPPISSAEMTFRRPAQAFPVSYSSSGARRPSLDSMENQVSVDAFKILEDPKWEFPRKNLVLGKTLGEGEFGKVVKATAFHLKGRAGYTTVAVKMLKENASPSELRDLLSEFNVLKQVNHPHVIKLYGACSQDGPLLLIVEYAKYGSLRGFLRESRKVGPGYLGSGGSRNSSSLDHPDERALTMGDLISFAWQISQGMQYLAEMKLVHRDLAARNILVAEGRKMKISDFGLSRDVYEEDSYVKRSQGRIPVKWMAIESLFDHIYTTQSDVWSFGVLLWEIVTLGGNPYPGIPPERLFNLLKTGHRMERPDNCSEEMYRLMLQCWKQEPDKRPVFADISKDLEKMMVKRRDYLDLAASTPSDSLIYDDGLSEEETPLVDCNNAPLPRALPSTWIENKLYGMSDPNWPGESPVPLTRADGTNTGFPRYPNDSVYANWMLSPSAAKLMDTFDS

Sequence of Vascular endothelial growth factor receptor 2 (P35968 whole entry): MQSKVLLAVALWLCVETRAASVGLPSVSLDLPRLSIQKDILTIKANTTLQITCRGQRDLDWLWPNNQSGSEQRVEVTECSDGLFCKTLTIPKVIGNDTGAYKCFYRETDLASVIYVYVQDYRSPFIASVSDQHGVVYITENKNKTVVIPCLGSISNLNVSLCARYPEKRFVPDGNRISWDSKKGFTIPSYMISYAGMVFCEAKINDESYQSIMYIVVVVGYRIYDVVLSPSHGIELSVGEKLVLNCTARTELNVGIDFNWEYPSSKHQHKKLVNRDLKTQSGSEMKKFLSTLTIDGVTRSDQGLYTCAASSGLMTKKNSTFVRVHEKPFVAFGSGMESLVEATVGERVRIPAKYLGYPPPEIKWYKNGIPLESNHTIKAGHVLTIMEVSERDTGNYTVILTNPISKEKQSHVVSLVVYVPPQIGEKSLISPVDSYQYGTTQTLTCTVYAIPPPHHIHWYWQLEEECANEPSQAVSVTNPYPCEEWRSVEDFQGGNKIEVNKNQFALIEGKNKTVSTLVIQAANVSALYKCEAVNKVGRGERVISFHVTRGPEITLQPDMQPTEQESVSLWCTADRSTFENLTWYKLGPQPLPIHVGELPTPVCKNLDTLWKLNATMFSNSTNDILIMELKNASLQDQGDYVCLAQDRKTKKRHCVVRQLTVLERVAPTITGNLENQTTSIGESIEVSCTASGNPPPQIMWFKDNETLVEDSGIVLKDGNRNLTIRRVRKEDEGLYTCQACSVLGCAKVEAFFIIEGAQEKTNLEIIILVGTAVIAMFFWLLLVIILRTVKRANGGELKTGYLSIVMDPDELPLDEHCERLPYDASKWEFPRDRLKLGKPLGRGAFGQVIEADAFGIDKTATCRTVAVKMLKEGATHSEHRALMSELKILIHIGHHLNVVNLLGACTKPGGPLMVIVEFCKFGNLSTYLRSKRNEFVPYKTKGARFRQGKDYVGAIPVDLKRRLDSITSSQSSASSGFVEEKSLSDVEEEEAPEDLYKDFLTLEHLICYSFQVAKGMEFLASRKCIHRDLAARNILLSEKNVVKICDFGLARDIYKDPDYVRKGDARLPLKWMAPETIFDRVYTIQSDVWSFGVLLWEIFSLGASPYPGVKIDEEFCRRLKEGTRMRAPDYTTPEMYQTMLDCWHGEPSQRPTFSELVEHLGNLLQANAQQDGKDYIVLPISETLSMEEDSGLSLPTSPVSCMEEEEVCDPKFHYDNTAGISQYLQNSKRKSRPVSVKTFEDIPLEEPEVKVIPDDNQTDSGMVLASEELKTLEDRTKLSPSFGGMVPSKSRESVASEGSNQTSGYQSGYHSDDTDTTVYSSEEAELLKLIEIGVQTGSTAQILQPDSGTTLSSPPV

Row | IC50 [1] [nM] | IC50 [2] [nM] | SMILES
1 | < 50 | < 50 | CN(CCCOc1cc2nccc(Oc3ccc(NC(=O)Nc4ccc(Cl)c(C(F)(F)F)c4)cc3)c2c2c1OCCO2)C1CCC1
2 | – | < 50 | O=C(Nc1ccc(Oc2ccnc3cc(OC4CCOCC4)c4c(c23)OCCO4)cc1Cl)NC1CC1
3 | < 50 | < 50 | O=C(Nc1ccc(Oc2ccnc3cc(OCCCN4CCOCC4)c4c(c23)OCCO4)cc1F)NC1CC1
